Laboratory results from ChEMBL document CHEMBL5584314, “Identification of an m6A Natural Inhibitor, Lobeline, That Reverses Lenvatinib Resistance in Hepatocellular Tumors” (J Nat Prod, 2024).
Activity calls are given as the source filed them. No cut-off for these calls is given here.

Key:
[1] = test system: Lenvatinib-resistant HCC/Len; assay: Antitumor activity against human Lenvatinib-resistant HCC/Len cells xenografted in BALB/c nude mouse model of PDX assessed as reduction in METTL3 protein expression at 1.5 mg/kg, ip 5 times per week for 3 weeks by Western blot assay; assay type: functional, organism-based
[2] = test system: Lenvatinib-resistant Huh7/Len; assay: Anticancer activity against human Lenvatinib-resistant Huh7/Len cells assessed as reduction in UBE3B mRNA expression at 2 uM by qPCR analysis; assay type: functional, cell-based
[3] = target: N6-adenosine-methyltransferase catalytic subunit (Homo sapiens) (UniProt Q86U44); assay: Inhibition of METTL3 in human Lenvatinib-resistant Huh7/Len cells assessed as effect on MMP3 mRNA expression level at 2 uM incubated for 72 hrs by RT-PCR analysis; assay type: cell-based
[4] = test system: Lenvatinib-resistant HCC/Len; assay: Antitumor activity against human Lenvatinib-resistant HCC/Len cells xenografted in BALB/c nude mouse model of PDX assessed as tumor growth inhibition at 1.5 mg/kg, ip cotreated with lenvatinib 5 times per week for 3 weeks; assay type: functional, organism-based
[5] = test system: Lenvatinib-resistant Huh7/Len; assay: Induction of apoptosis in human Lenvatinib-resistant Huh7/Len cells xenografted in BALB/c nude mouse assessed as apoptotic cells in tumor tissue at 1.5 mg/kg, ip cotreated with lenvatinib 5 times per week for 3 weeks by TUNEL assay; assay type: functional, organism-based
[6] = Toxicity in BALB/c nude mouse xenografted with human Lenvatinib-resistant Huh7/Len cells assessed as changes in organ index at 1.5 mg/kg, ip administered 5 times per week for 3 weeks; assay type: organism-based; conditions: in vivo, 504 h
[7] = test system: Lenvatinib-resistant Huh7/Len; assay: Antitumor activity against human Lenvatinib-resistant Huh7/Len cells xenografted in BALB/c nude mouse assessed as tumor growth inhibition at 1.5 mg/kg, ip cotreated with lenvatinib 5 times per week for 3 weeks; assay type: functional, organism-based
[8] = target: N6-adenosine-methyltransferase catalytic subunit (Homo sapiens) (UniProt Q86U44); assay: Inhibition of METTL3 in human Huh-7 cells assessed as down regulation of m6A RNA level at 2 uM incubated for 72 hrs by colorimetric analysis; assay type: cell-based
[9] = target: N6-adenosine-methyltransferase catalytic subunit (Homo sapiens) (UniProt Q86U44); assay: Inhibition of METTL3 in human Huh-7 cells assessed as down regulation of m6A RNA level incubated for 72 hrs by Dot blot assay; assay type: cell-based; conditions: dose 5-10 µM
[10] = target: N6-adenosine-methyltransferase catalytic subunit (Homo sapiens) (UniProt Q86U44); assay: Inhibition of METTL3 in human Lenvatinib-resistant Huh7/Len cells assessed as effect on HNF4A mRNA expression level at 2 uM incubated for 72 hrs by RT-PCR analysis; assay type: cell-based
[11] = target: N6-adenosine-methyltransferase catalytic subunit (Homo sapiens) (UniProt Q86U44); assay: Inhibition of METTL3 in human Lenvatinib-resistant Huh7/Len cells assessed as effect on LATS1 mRNA expression level at 2 uM incubated for 72 hrs by RT-PCR analysis; assay type: cell-based
[12] = test system: Lenvatinib-resistant HCC/Len; assay: Antitumor activity against human Lenvatinib-resistant HCC/Len cells xenografted in BALB/c nude mouse model of PDX assessed as inhibition of tumor volume at 1.5 mg/kg, ip cotreated with lenvatinib 5 times per week for 3 weeks; assay type: functional; conditions: 504 h
[13] = target: N6-adenosine-methyltransferase catalytic subunit (Homo sapiens) (UniProt Q86U44); assay: Inhibition of METTL3 in human Lenvatinib-resistant Huh7/Len cells assessed as effect on AKT1 mRNA expression level at 2 uM incubated for 72 hrs by RT-PCR analysis; assay type: cell-based
[14] = target: N6-adenosine-methyltransferase catalytic subunit (Homo sapiens) (UniProt Q86U44); assay: Inhibition of METTL3 in human Lenvatinib-resistant Huh7/Len cells assessed as effect on UCK2 mRNA expression level at 2 uM incubated for 72 hrs by RT-PCR analysis; assay type: cell-based
[15] = test system: Lenvatinib-resistant Huh7/Len; assay: Anticancer activity against human Lenvatinib-resistant Huh7/Len cells assessed as reduction in UBE3B protein expression at 2 uM by Western blot analysis; assay type: functional, cell-based
[16] = test system: Lenvatinib-resistant Huh7/Len; assay: Antiproliferative activity against human Lenvatinib-resistant Huh7/Len cells assessed as inhibition of cell viability at 5 uM uM after 72 hrs in presence of lenvatinib by CCK-8 assay; assay type: functional, cell-based
[17] = target: N6-adenosine-methyltransferase catalytic subunit (Homo sapiens) (UniProt Q86U44); assay: Inhibition of METTL3 in human Lenvatinib-resistant Huh7/Len cells assessed as effect on IFIT2 mRNA expression level at 2 uM incubated for 72 hrs by RT-PCR analysis; assay type: cell-based
[18] = target: N6-adenosine-methyltransferase catalytic subunit (Homo sapiens) (UniProt Q86U44); assay: Inhibition of METTL3 in human Lenvatinib-resistant Huh7/Len cells assessed as effect on GATA3 mRNA expression level at 2 uM incubated for 72 hrs by RT-PCR analysis; assay type: cell-based
[19] = target: N6-adenosine-methyltransferase catalytic subunit (Homo sapiens) (UniProt Q86U44); assay: Inhibition of METTL3 in human Lenvatinib-resistant Huh7/Len cells assessed as effect on NPCL1 mRNA expression level at 2 uM incubated for 72 hrs by RT-PCR analysis; assay type: cell-based
[20] = test system: Lenvatinib-resistant Hep3B/Len; assay: Antiproliferative activity against human Lenvatinib-resistant Hep3B/Len cells assessed as inhibition of clone formation ability at 5 uM preincubated for 72 hrs and measured after 7 to 10 days in presence of lenvatinib by crystal violet staining based assay; assay type: functional, cell-based; conditions: time 10-13 day
[21] = Toxicity in BALB/c nude mouse xenografted with human Lenvatinib-resistant Huh7/Len cells assessed as changes in body weight at 1.5 mg/kg, ip cotreated with lenvatinib 5 times per week for 3 weeks; assay type: organism-based; conditions: in vivo, 504 h
[22] = test system: Lenvatinib-resistant Hep3B/Len; assay: Antiproliferative activity against human Lenvatinib-resistant Hep3B/Len cells assessed as inhibition of cell viability at 5 uM after 72 hrs in presence of lenvatinib by CCK-8 assay; assay type: functional, cell-based
[23] = target: N6-adenosine-methyltransferase catalytic subunit (Homo sapiens) (UniProt Q86U44); assay: Inhibition of METTL3 in human Lenvatinib-resistant Huh7/Len cells assessed as effect on MYC mRNA expression level at 2 uM incubated for 72 hrs by RT-PCR analysis; assay type: cell-based
[24] = test system: Lenvatinib-resistant Hep3B/Len; assay: Antiproliferative activity against human Lenvatinib-resistant Hep3B/Len cells assessed as inhibition of clone formation ability at 5 uM preincubated for 72 hrs and measured after 7 to 10 days by crystal violet staining based assay; assay type: functional, cell-based; conditions: time 10-13 day
[25] = test system: Lenvatinib-resistant HCC/Len; assay: Antitumor activity against human Lenvatinib-resistant HCC/Len cells xenografted in BALB/c nude mouse model of PDX assessed as reduction in Ki-67 protein expression in tumor tissue at 1.5 mg/kg, ip cotreated with lenvatinib 5 times per week for 3 weeks by immunohistochemistry analysis relative to control; assay type: functional, organism-based
[26] = target: N6-adenosine-methyltransferase catalytic subunit (Homo sapiens) (UniProt Q86U44); assay: Inhibition of METTL3 in human Lenvatinib-resistant Huh7/Len cells assessed as effect on FGFR3 mRNA expression level at 2 uM incubated for 72 hrs by RT-PCR analysis; assay type: cell-based
[27] = test system: Lenvatinib-resistant Huh7/Len; assay: Antitumor activity against human Lenvatinib-resistant Huh7/Len cells xenografted in BALB/c nude mouse assessed as inhibition of tumor volume at 1.5 mg/kg, ip cotreated with lenvatinib 5 times per week for 3 weeks relative to control; assay type: functional; conditions: 504 h
[28] = test system: Lenvatinib-resistant Huh7/Len; assay: Antitumor activity against human Lenvatinib-resistant Huh7/Len cells xenografted in BALB/c nude mouse assessed as reduction in m6A RNA level at 1.5 mg/kg, ip 5 times per week for 3 weeks by Dot blot assay; assay type: functional, organism-based
[29] = Toxicity in BALB/c nude mouse PDX model xenografted with human Lenvatinib-resistant HCC/Len cells assessed as changes in body weight at 1.5 mg/kg, ip administered 5 times per week for 3 weeks; assay type: organism-based; conditions: in vivo, 504 h
[30] = Toxicity in BALB/c nude mouse PDX model xenografted with human Lenvatinib-resistant HCC/Len cells assessed as changes in organ index at 1.5 mg/kg, ip administered 5 times per week for 3 weeks; assay type: organism-based; conditions: in vivo, 504 h

Chain of N6-adenosine-methyltransferase catalytic subunit (Homo sapiens) (Q86U44 whole entry): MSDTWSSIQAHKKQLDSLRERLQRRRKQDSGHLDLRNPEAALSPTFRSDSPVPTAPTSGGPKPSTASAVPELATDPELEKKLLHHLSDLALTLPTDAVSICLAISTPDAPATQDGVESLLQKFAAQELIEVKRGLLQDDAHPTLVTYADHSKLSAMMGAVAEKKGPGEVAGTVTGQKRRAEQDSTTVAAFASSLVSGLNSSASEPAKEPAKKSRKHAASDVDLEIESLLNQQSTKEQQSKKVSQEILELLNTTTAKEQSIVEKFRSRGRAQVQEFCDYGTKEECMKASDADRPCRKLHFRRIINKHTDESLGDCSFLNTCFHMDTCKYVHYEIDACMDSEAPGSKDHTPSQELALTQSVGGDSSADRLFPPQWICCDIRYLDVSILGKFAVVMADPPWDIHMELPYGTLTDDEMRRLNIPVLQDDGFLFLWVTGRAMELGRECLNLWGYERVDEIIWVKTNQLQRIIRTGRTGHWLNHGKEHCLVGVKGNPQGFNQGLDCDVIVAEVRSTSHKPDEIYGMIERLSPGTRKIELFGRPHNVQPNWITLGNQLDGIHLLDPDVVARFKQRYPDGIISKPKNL

## CN1[C@@H](CC(=O)c2ccccc2)CCC[C@H]1C[C@H](O)c1ccccc1 [LOBELINE]
[1]
  Activity: inactive
[2]
  Activity: Active
[3]
  inhibition: Active
[4]
  TGI: Active
[5]
  Activity: Active
[6]
  Activity: Non-Toxic
[7]
  TGI: Active
[8]
  inhibition: 11%
[9]
  inhibition: Dose-Dependent Effect
[10]
  inhibition: Active
[11]
  inhibition: Active
[12]
  inhibition in vivo at 1.5 mg/kg: 60%
[13]
  inhibition: Active
[14]
  inhibition: Active
[15]
  Activity: Active
[16]
  inhibition: Active
[17]
  inhibition: Active
[18]
  inhibition: Active
[19]
  inhibition: Active
[20]
  inhibition: inactive
[21]
  Activity: Non-Toxic
[22]
  inhibition: Active
[23]
  inhibition: Active
[24]
  inhibition: inactive
[25]
  Activity: Active
[26]
  inhibition: Active
[27]
  inhibition in vivo at 1.5 mg/kg: 68%
[28]
  Activity: inactive
[29]
  Activity: Non-Toxic
[30]
  Activity: Non-Toxic
